# Source: a melting point compilation (Tetko et al.)
row,melting point [°C],Compound
1,152 to 154,O=C(O)C1(c2cccc(Br)c2)CCOCC1
2,203 to 205,Nn1c(S)nnc1Cc1ccc(F)cc1
3,114 to 116,Brc1ccc(Oc2ncccn2)cc1
4,161 to 163,O=C(O)C12CC3CC(C1)CC(c1ccccc1)(C3)C2
5,83 to 85,CN1CCN(C(=O)c2ccc(C#N)cn2)CC1
6,75 to 77,COc1cc(C=O)cc(Cl)c1OC(F)F
7,108 to 110,O=C(O)C(Oc1cccc(F)c1)c1ccccc1 (stereo not given)
8,88 to 90,CCN1C(=N)C(C)(C)N(C)C1=O
9,140 to 142,Cc1cc(C)cc(C(=O)CC#N)c1
10,145 to 147,Cc1cccc2[nH]cc(CCC(=O)O)c12
11,178 to 180,CC(C)c1noc2nc(C3CC3)cc(C(=O)O)c12
12,289 to 291,CC(=O)Nc1cc(S(=O)(=O)Cl)ccc1O
13,242 to 244,NNC(=O)Cc1cc(=O)[nH]c(S)n1
14,46 to 48,Cc1ncc2ccccn12
15,65 to 67,COc1cc(CCl)c(OC)cc1Br
16,109 to 111,Fc1ccc(-c2ccn[nH]2)cc1Cl
17,165 to 167,CN(C)C(=O)c1ccc(C=O)[nH]1
18,274 to 276,CS(=O)(=O)c1ccc(C(=O)O)cc1[N+](=O)[O-]
19,253 to 255,NNC(=O)c1cc2c(s1)CCCCC2
20,309 to 311,O=C(O)CN1C(=O)c2cc(Cl)c(Cl)cc2C1=O
21,166 to 168,Cn1ccnc1C(O)(c1nccn1C)C1CC1
22,161 to 163,CC(=O)c1ccc(S(=O)(=O)N2CCOCC2)cc1
23,71 to 73,O=C1CCc2c(F)cccc21
24,160 to 162,CS(=O)(=O)CCC1NC(=O)NC1=O (stereo not given)
25,319 to 321,CC(C)(C)c1ccc(/C=C/c2cc(C(=O)O)c3cc(Br)ccc3n2)cc1
26,36 to 38,Cc1cc(CC#N)no1
27,111 to 113,O=C(O)c1noc(-c2ccccc2)n1

row,melting point [°C],Compound
1,74 to 76,Cc1cccc(S(=O)(=O)Cl)c1C#N
2,122 to 124,O=C(O)CCc1ccc(S(=O)(=O)N2CCCCCC2)cc1
3,153 to 155,NC(=O)c1cc(N)ccc1Cl
4,79 to 81,CNCC(=O)Nc1ccc(C)cn1
5,151 to 153,CCOC(=O)c1sc(/N=C/N(C)C)c(C#N)c1C
6,111 to 113,COC(=O)c1c(F)cc(C#N)cc1F
7,43 to 45,COc1cc(C=O)ccc1S
8,149 to 151,COc1ccc(C(=O)O)cc1S(=O)(=O)N(C)C
9,239 to 241,O=C(O)c1cccc(-c2ncn[nH]2)c1
10,114 to 117,O=C(O)C(O)CCc1ccccc1 (stereo not given)
11,218 to 220,O=C(O)CN1CC(=O)Nc2ccccc21
12,141 to 143,Cn1ccc(N2CCC(N)C2=O)n1 (stereo not given)
13,117 to 119,CC(C(=O)O)S(=O)(=O)c1ccc(F)cc1 (stereo not given)
14,64 to 66,O=C(O)Cc1ccc(F)c(Br)c1
15,47 to 49,Cc1cc(C)cc(C(N)c2cccnc2)c1 (stereo not given)
16,129 to 131,CC(=O)NC1CCC(N)CC1 (stereo not given)
17,97 to 99,Cc1ccc(C(=O)N(C)C)cc1N
18,94 to 96,COc1ccccc1CNC(=O)CCl
19,275 to 277,CC1CCc2c(sc3nc(S)n(Cc4ccco4)c(=O)c23)C1 (stereo not given)
20,104 to 106,CC(=O)Nc1ccc(Br)cc1[N+](=O)[O-]
21,116 to 118,CNc1ncc(Br)cn1
22,65 to 67,O=C1CC(CO)CN1CCc1ccccc1 (stereo not given)
23,153 to 155,O=C1NCC(=O)N2CCCCC12 (stereo not given)
24,139 to 141,C=CCSc1nc2ccccc2[nH]1
25,134 to 136,CC(C)c1ccc(C2(O)CCC(=O)CC2)cc1
26,235 to 237,Cn1ccnc1COc1ccc(C(=O)O)cc1

# More lines, now with the values behind:
row,Compound,melting point [°C]
1,O=C(Nc1nncs1)C1CCCNC1 (stereo not given),186 to 188
2,CCOC(=O)Nc1nnc(S)s1,205 to 207
3,Cc1csc(NC(=O)Cc2ccc(N)cc2)n1,143 to 145
4,CC1C=CC2C(=O)N(C)C(=O)C2C1C(=O)O (stereo not given),172 to 174
5,Cc1sc2ncnc(N)c2c1C,257 to 259
6,CC(C)(C)c1noc(-c2cc(Cl)ccc2N)n1,132 to 134
7,CCOc1cc(C=O)ccc1OCC(F)(F)F,38 to 40
8,COC(=O)c1ccc2ccn(C)c2c1,91 to 93
9,O=C(O)c1cccnc1OCC(F)(F)F,122 to 124
10,O=C(NCO)c1ccc(Cl)cc1,145 to 147
11,COc1ccc(S(=O)(=O)NC(C)(C)C)cc1N,119 to 121
12,C=CCNC(=O)CN1CCNCC1,63 to 65
13,O=C(Nc1cccc(Br)n1)c1ccccc1,84 to 86
14,N#CCc1ccccc1CC(=O)O,99 to 101
15,Cc1ccc(NC(=O)CC2(C(=O)O)CCCC2)cc1,191 to 193
16,COc1cc2c(cc1OC)NCC2,103 to 105
17,Cc1nn(-c2ccc(F)cc2)c(Cl)c1C(=O)O,253 to 255
18,CC(Cn1ccnc1)NC(=O)C1(N)CCCC1 (stereo not given),239 to 241
19,O=C(O)c1ccc(S(=O)(=O)Cl)s1,119 to 121
20,CCN1CCN(c2ccc(C(C)=O)cc2F)CC1,68 to 70
21,CCN(CC)C(=O)c1cccc(O)c1,80 to 82
22,CC1CC(N)C(=O)N1c1ccccc1 (stereo not given),77 to 79
23,COc1ccc(C(=O)c2ccc(F)cc2)cc1,90 to 92
24,O=C1CC2(CCOC2)CN1 (stereo not given),63 to 65
25,CC(C)c1ccc(C(N)=S)cc1,148 to 150
26,CC(CS(C)(=O)=O)C(=O)O (stereo not given),125 to 127

row,Compound,melting point [°C]
1,Nc1ccccc1-c1ccc(-c2ccccc2)cc1,163 to 165
2,O=C(O)c1ccc(Br)cc1-n1cncn1,293 to 295
3,O=C(O)c1ccc(CN2CCC(CO)CC2)cc1,219 to 221
4,Nc1nc(Cl)nnc1Cl,198 to 200
5,O=C(O)c1cc2c(F)c(F)ccc2[nH]1,209 to 211
6,O=C(O)CCCn1c(=O)oc2ccccc21,141 to 143
7,NC(=O)Cc1cccc(O)c1,114 to 116
8,Nc1nc2ccc(C(=O)O)cc2o1,337 to 339
9,CCNc1ccc(C#N)c(Cl)c1,69 to 71
10,Cc1c(C(=O)O)oc2c(Br)cccc12,204 to 206
11,COC(=O)C(Cl)c1cccc(C#N)c1 (stereo not given),49 to 51
12,O=C(O)c1c[nH]cc1C(=O)O,311 to 313
13,CC(=O)c1ccc(S(C)(=O)=O)c(F)c1,103 to 105
14,CC(Cl)C(=O)N1CC(=O)Nc2ccccc21 (stereo not given),139 to 141
15,COC(=O)c1c(F)cccc1S(=O)(=O)Cl,46 to 48
16,O=c1c2sccc2ncn1CCO,179 to 181
17,CC(O)c1ccc(I)cc1 (stereo not given),43 to 45
18,O=c1cnc2cc(F)c(F)cc2[nH]1,289 to 291
19,COc1ccc(S(=O)(=O)NC2CC2)cc1N,119 to 121
20,CCS(=O)(=O)c1ccc(Cl)c(C(=O)O)c1,144 to 146
21,COc1ccc(N)cc1NC(=O)c1ccc(Cl)cc1F,140 to 142
22,CCOc1ccc(OCC2CO2)cc1 (stereo not given),53 to 55
23,O=C(Nc1ccc2c(c1)OCO2)C(Cl)(Cl)Cl,99 to 101
24,Cc1nc2n(c1CN1CCNCC1)CCCC2,111 to 113
25,CC(C)(C)C1CCc2nc(N)sc2C1 (stereo not given),131 to 133
26,CC(=O)c1ccc(N)nc1,107 to 109
